According to US20250059139A1, “COMPOUNDS FOR TREATMENT OF CANCER” (THE JOHNS HOPKINS UNIVERSITY, priority 2021, published 2025):

Tests used:
[1] = tested on: CWR22-RH human prostate cancer PDXs; assay: In vivo growth of CWR22-RH xenografts in castrate NSG male mice; conditions: for CWR22-RH Tumor Growth (% inhibition +/− SD): castrate mice treated orally over a 3 week period, 10 mg/kg/d, n = 5/group; for growth inhibitor (GI) activity on CWR22-RH xenografts (SAR summary): in vivo
Text: Prostate Cancer Models. The source, history, and characteristics of the human prostate cancer cell lines and PDXs used, as well as cell culture conditions for their in vitro maintenance and the in vivo protocol for xenograft growth in triple immune-deficient NSG (i.e. NOD.Cg-PrkdcScidIl2rgtmlWji/Szj), adult (>8 week old) male mice obtained from the Sidney Kimmel Comprehensive Cancer Center (SKCCC) Animal Core Facility are described previously (Isaacs 2013; Brennen et al. JCI Insight. 2021, 6(8):e146827; Zhu et al. Oncogene 2020, 39(45): 6935-6949). Similar information concerning the TRAMP-C2 and B6CaP mouse prostate cancers originating in a C57BL/6J male mice are described previously (Foster et al. Cancer Res. 1997, 57: 3325-3330; Simons et al. Oncotarget. 2019, 10(64):6845-6854). In vitro growth curves were determined as described (Isaacs 2013). In vivo growth response to oral daily TasQ (10 mg/kg/d) of TRAMP-C2 mouse prostate cancers was evaluated in C57BL/6J syngeneic wild type vs. NOX-2 vs. iNOS null male mice obtained from Jackson Laboratory (Bar Harbor, ME). Growth response to oral daily TasQ (10 mg/kg/d) of TRAMP-C2 and B6CaP mouse prostate cancers was also evaluated in S100A9 null C57BL′6J male mice obtained from Dmitry Gabrilovich (Wistar Institute). All lines were mycoplasma negative using the MycoSensor PCR Assay kit (Agilent Technologies) and genetically authenticated within the last 6 months using short tandem repeat profiling conducted by the Johns Hopkins Genetic Resource Core Facility. In vitro growth curves were determined as described (Isaacs 2013). Growth response to daily oral TasQ vs. ESATA-20 (both at 10 mg/kg/d) of Myc-CaP-CR mouse prostate cancer was evaluated in syngeneic FVB/NJ castrate male mice from Jackson Laboratory. Animal studies were conducted according to animal protocols approved by Johns Hopkins Animal Care and Use Committee. Tumor volume measurements were as described previously (id.). In vivo experiments were repeated multiple independent times for each model used with 3-5 mice per treatment grouping.
(§1) Oral Drug treatment. TasQ at the indicated dose was initially dissolved with equal molar 1 N sodium hydroxide. This solution was diluted with sterile water and the mixture stirred for 1 hr. The pH was then adjusted with 1 N HCl to 8.9 and 200 μL given daily via oral gavage.
Due to these combined effects, maximal growth inhibition of CWR22-RH, a castration-resistant prostate cancer patient-derived xenograft (PDX), is obtained as maintenance therapy with oral daily dosing of ≥5 mg/kg/d (FIG. 1). […] Previous studies documented that in vitro treatment of human prostate cancer cells (LNCaP) with 1-10 μM TasQ rapidly (i.e., ≤1 day) induces the transcription of a series of AHR target genes (e.g., Cyp1a1, Cyp1b1, AHRR, TPARP, GDF15) (Olsson 2010). […]

[2] = biological target: T1, Human Aryl Hydrocarbon Receptor (AHR) (Homo sapiens, UniProt P35869); assay: Human AHR reporter assay (cell-based  luciferase reporter gene assay); conditions: n = 4 independent assays/analog; read-out: AHR Agonist Response [EC50] (nM +/−SD)
T1 construct: purchased Indigo Biosciences IB06001
T1 sequence (P35869 11-848): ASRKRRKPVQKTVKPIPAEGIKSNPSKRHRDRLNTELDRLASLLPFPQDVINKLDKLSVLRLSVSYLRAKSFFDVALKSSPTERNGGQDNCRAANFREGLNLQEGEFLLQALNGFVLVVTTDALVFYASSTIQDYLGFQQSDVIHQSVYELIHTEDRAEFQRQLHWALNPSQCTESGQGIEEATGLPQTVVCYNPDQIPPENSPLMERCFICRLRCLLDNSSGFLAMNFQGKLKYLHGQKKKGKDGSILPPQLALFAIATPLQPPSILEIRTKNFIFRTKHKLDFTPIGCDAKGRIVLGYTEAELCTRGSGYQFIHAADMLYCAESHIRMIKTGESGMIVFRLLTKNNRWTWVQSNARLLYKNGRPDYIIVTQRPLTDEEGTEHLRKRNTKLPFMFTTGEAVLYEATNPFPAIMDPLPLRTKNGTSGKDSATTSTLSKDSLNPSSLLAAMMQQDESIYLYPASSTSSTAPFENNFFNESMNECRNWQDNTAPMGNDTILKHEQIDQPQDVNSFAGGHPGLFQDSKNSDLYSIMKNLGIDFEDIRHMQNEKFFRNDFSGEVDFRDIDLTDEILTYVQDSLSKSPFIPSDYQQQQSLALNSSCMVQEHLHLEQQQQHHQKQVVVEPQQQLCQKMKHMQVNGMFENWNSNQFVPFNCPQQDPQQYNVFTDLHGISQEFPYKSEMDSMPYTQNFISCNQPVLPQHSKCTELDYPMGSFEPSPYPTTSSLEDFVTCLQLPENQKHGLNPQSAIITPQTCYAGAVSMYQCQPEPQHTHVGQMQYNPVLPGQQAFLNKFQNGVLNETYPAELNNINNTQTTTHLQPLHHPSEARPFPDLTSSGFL
Text: AHR Agonist Assay. Human Aryl Hydrocarbon Receptor (AHR) Reporter Assay System [Indigo Biosciences (State College, Pa) Cat #IB06001] was used as per the manufacturer's protocol.

[3] = tested on: LvCaP-3 human prostate cancer PDXs; assay: In vivo growth of LvCaP-3 xenografts in castrate hosts; conditions: daily oral 10 mg/kg
Text: Prostate Cancer Models. The source, history, and characteristics of the human prostate cancer cell lines and PDXs used, as well as cell culture conditions for their in vitro maintenance and the in vivo protocol for xenograft growth in triple immune-deficient NSG (i.e. NOD.Cg-PrkdcScidIl2rgtmlWji/Szj), adult (>8 week old) male mice obtained from the Sidney Kimmel Comprehensive Cancer Center (SKCCC) Animal Core Facility are described previously (Isaacs 2013; Brennen et al. JCI Insight. 2021, 6(8):e146827; Zhu et al. Oncogene 2020, 39(45): 6935-6949). […] In vitro growth curves were determined as described (Isaacs 2013). In vivo growth response to oral daily TasQ (10 mg/kg/d) of TRAMP-C2 mouse prostate cancers was evaluated in C57BL/6J syngeneic wild type vs. NOX-2 vs. iNOS null male mice obtained from Jackson Laboratory (Bar Harbor, ME). Growth response to oral daily TasQ (10 mg/kg/d) of TRAMP-C2 and B6CaP mouse prostate cancers was also evaluated in S100A9 null C57BL′6J male mice obtained from Dmitry Gabrilovich (Wistar Institute). […] In vitro growth curves were determined as described (Isaacs 2013). Growth response to daily oral TasQ vs. ESATA-20 (both at 10 mg/kg/d) of Myc-CaP-CR mouse prostate cancer was evaluated in syngeneic FVB/NJ castrate male mice from Jackson Laboratory. […]

[4] = tested on: thymus; assay: AHR agonist induced thymus regression in FVB male mice; assay type: in vivo, mouse
Protocol: To evaluate AHR agonist induced thymus regression, groups of five 4-week old FVB male mice from Jackson Laboratory were treated with either vehicle, Linomide, TasQ, or its analogs daily by orally gavage for 2 weeks and then the thymus removed and weighted.
as §1
This means that in the clinical setting, dose-escalation above 1 mg/d of TasQ as needed to reach this >2 μM blood level for optimal anti-cancer efficacy will also enhance unwanted off-target AHR induction. Therefore, a medicinal chemical approach was undertaken to identify third generation quinoline-3-carboxamide analogs with increased HDAC4 inhibition, but with reduced AHR agonism. The approach taken is based upon the earlier SPR analysis documenting that TasQ linked to the surface chip via its aniline-N is a potent binder of HDAC4. Thus, a series of quinoline-3-carboxamide analogs were synthesized focusing upon adduct changes at the aniline-N. These analogs were synthesized as described in Example 1, and were initially screened for their AHR agonist activity using the in vitro human cell-based ARE-driven luciferase reporter gene assay (Table 3).

[5] = tested on: mCRPC patients; conditions: human, in vivo; cited from earlier work
[6] = biological target: T2, fl-HDAC4 (wild-type) (Homo sapiens, UniProt P56524); assay: SPR binding analysis TasQ / fl-HDAC4; conditions: compound at >30 μM in solution, Zn2+ present
T2 construct: Full-length (fl) [A.A. 1-1082] recombinant human histone deacetylase 4 (rhHDAC4) protein; FLAG (N); GST (given as 'with or without'); made in house; host or cells: HEK293-T
T2 sequence (P56524 whole entry): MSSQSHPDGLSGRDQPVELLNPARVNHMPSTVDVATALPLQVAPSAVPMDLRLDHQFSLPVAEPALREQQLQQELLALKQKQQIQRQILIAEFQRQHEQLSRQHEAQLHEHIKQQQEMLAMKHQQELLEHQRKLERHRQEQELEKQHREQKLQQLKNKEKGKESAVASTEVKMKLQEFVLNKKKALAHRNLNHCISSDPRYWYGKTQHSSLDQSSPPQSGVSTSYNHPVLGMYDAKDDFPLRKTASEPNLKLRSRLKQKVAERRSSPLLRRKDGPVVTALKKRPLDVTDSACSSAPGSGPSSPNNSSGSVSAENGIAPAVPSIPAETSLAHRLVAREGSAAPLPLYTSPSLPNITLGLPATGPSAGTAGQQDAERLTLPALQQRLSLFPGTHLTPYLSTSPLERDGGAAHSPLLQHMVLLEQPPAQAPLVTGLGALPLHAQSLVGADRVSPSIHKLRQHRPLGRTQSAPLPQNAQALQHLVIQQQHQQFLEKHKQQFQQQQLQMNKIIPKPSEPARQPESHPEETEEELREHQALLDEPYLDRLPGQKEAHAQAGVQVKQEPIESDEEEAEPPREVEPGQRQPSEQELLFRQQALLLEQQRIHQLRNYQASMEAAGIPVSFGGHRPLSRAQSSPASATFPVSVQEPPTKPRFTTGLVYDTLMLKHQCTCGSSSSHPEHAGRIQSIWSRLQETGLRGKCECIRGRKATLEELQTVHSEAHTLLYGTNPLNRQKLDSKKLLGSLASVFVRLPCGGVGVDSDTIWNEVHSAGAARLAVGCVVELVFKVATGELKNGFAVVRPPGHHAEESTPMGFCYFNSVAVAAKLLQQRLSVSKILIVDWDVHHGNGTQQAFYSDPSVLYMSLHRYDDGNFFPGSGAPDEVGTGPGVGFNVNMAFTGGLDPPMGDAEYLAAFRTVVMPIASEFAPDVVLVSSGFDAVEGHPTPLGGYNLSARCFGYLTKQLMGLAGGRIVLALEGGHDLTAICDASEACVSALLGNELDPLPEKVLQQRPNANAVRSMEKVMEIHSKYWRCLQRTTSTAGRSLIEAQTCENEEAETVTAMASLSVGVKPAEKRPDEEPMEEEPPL
Protocol: Surface Plasmon Resonance (SPR) Binding Analysis. SPR analysis was performed on the Biacore 3000™ system using CM5 sensor chips, certified buffers (HBS-P—10 mM HEPES, 0.15 M NaCl, pH 7.4, containing 0.005% v/v Surfactant P; HBS-EP-HBS-P with 3 mM EDTA) and reagents for immobilization and surface regeneration from Biacore, GE Healthcare, Uppsala Sweden. Evaluation of sensorgrams was performed using the BIA-evaluation Software version 4.1 and GraphPad Prism 4. Buffer of protein reagents were changed to HBS-P on Zeba spin desalting columns (Thermo Scientific) prior to being used in SPR analysis (Isaacs 2013).
A. Binding of wild-type and mutant forms of HDAC4 to immobilized TasQ. TasQ (ABR-215050; mol wt 406.4) was dissolved as a 40 mM solution in water with 1.5 equivalents of NaOH. TasQ with an amino-linker [i.e. —(CH2)2O(CH2)2—NH2](ABR-225180) in amide nitrogen position was used for amine coupling on to a Biacore CM5 sensor chip. A 1 mg/mL solution of ABR-225180 in HBS-P buffer was prepared and immobilized on a CM5 chip by injection at a flow rate of 5 or 10 μL/min until a stable response level was reached. Interaction of various HDAC4 forms with immobilized TasQ was studied by injection over this surface in HBS-P buffer containing 10 or 20 μM ZnCl2. Bound HDAC4 was removed by a pulse of 3 mM EDTA in HBS-P or 0.5 to 6.25 mM NaOH in water. In a second series of experiments, the ability of TasQ in solution to displace this binding was studied by pre-incubation of HDAC4 with TasQ as competitor.
B. Binding of TasQ to immobilized HDAC4 and NCoR1. Different variants of HDAC4 (full-length wild-type and mutant forms and the truncated protein) and full-length NCoR1 were immobilized on a CM5 chip using random amine coupling. Briefly, proteins were dissolved in 10 mM sodium acetate buffer at pH 5.0 or 5.5 and immobilized to the aimed level using the standard protocol from GE Healthcare. Serially diluted TasQ in HBS-P buffer with 10 or 20 μM Zn was injected (for 2 or 3 min at a flow rate of 30 μl/min) either directly or after a 1st injection of 1 mM DTT to reduce cysteines in the zinc conformation site in HDAC4. Regeneration was made with a short pulse of HBS-EP.
To evaluate the conformational requirements for TasQ's binding to HDAC4, surface plasmon resonance (SPR) analysis was utilized. To maximize conformational flexibility, TasQ is immobilized onto the surface of a Biacore CM5 sensor chip via an amino-linker [i.e. —(CH2)2—O—(CH2)2—NH2] in its amide nitrogen position.
By comparison, Linomide even at >30 μM in solution binds only 10-15% of the immobilized fl-HDAC4 protein despite the presence of Zn^+2 (FIG. 14). […] The fact that the KD for binding of soluble TasQ to immobilized fl-HDAC4 is higher than the KD for binding of soluble fl-HDAC4 with immobilized TasQ is predictable. This is because the conformational dynamics of fl-HDAC4 protein immobilized on the chip are more restrictive due to the multiple random amine coupling than the conformational dynamics of TasQ immobilized via a single amino-linker.
To address this possibility, a competitive binding assay was developed based upon the ability of TasQ in solution to compete with immobilized TasQ on the SPR-chip for binding to fl-HDAC4.

| SMILES | CWR22-RH Tumor Growth (% inhibition +/− SD) [1] | EC50 [2] [nM] | growth inhibitor (GI) activity on CWR22-RH xenografts (SAR summary) [1] | also measured |
| --- | --- | --- | --- | --- |
| C[C@]12CC[C@H](O)CC1=CC[C@@H]1[C@@H]2CC[C@]2(C)C(c3cccnc3)=CC[C@@H]12 [Abiraterone] | <10% | > 50000 |  |  |
| c1ccc2c(c1)cc1ccc3cccc4ccc2c1c34 [Benzo[α]pyrene, benzo[a]pyrene] | <10% |  |  | inhibition of growth of LvCaP-3 xenografts at the end of study [3]: completely lacks therapeutic efficacy; thymus weight ([4]; 10 mg/kg/d oral for 14 days): 27 ± 8 mg; Thymus Regression (% decrease weight +/− SD) ([4]; mice treated orally for 2 weeks, 10 mg/kg/d, n = 5/group): 51 +/− 7% |
| COC(=O)c1c(O)c2c(OC)cccc2n(C)c1=O [ESATA-2] |  | > 100000 | no GI activity |  |
| COc1cccc2c1c(O)c(C(=O)Nc1ccc(C(F)(F)F)cc1)c(=O)n2C [ESATA-4] | 86 +/− 9% | 0.5 | high GI activity |  |
| COc1cccc2c1CC(C(=O)N(C)c1ccc(C(F)(F)F)cc1)C(=O)N2C (stereo not shown) [ESATA-5] |  | 300 |  |  |
| CCCCCCCN(C(=O)c1c(O)c2c(OC)cccc2n(C)c1=O)c1ccc(C(F)(F)F)cc1 [ESATA-11] |  | 50 |  |  |
| COc1cccc2c1c(O)c(C(=O)N(CCOCc1ccccc1)c1ccc(C(F)(F)F)cc1)c(=O)n2C [ESATA-14] | <10% | 1100 | no GI activity |  |
| COc1cccc2c1c(O)c(C(=O)N(Cc1ccccc1)c1ccc(C(F)(F)F)cc1)c(=O)n2C [ESATA-18] | 50 +/− 18% | 10700 |  |  |
| COc1cccc2c1c(O)c(C(=O)N(c1ccc(C(F)(F)F)cc1)C1CCC(C(F)(F)F)CC1)c(=O)n2C (stereo not shown) [ESATA-22] | <10% | 12000 | no GI activity |  |
| COc1cccc2c1c(O)c(C(=O)N/N=C/c1ccc(C(F)(F)F)cc1)c(=O)n2C [ESATA-24] |  | 800 |  |  |
| CCOc1c(C(=O)N(c2ccc(C(F)(F)F)cc2)C2CCCCC2)c(=O)n(C)c2cccc(OC)c12 [ESATA-25] | <10% | 10500 | no GI activity |  |
| COc1cccc2c1c(OCCNC(=O)OC(C)(C)C)c(C(=O)N(c1ccc(C(F)(F)F)cc1)C1CCCCC1)c(=O)n2C [ESATA-26] | <10% | > 50000 | no GI activity |  |
| COc1cccc2c1c(O)c(C(=O)N(c1ccccc1)C(C)C)c(=O)n2C [ESATA-27] | <10% | 850 |  |  |
| COc1cccc2c1c(O)c(C(=O)N(c1ccccc1)C1CCCCC1)c(=O)n2C [ESATA-28] | <10% | 1300 |  |  |
| COc1cccc2c1c(O)c(C(=O)N(c1ccc(C(F)(F)F)cc1)C(C)C)c(=O)n2C [ESATA-30] | <10% | 1400 | no GI activity |  |
| CN(C(=O)c1c(O)c2ccccc2n(C)c1=O)c1ccccc1 [Linomide, roquinimex] |  |  |  | adverse events in Phase III clinical trials [5]: several cases of pericarditis and neuropathy; fraction of the immobilized fl-HDAC4 protein bound [6]: 10-15% |
